Laboratory results reported in ChEMBL document CHEMBL1122736, “Replacement of the peptide-backbone amides connecting Tyr-Gly and Gly-Gly in leucine-enkephalin with ketomethylene groups: synthesis and biological activity” (J Med Chem, 1984).

Assays:
Mus musculus [1] = experiment: Analgesic activity in mice by tail-flick test after intracerebroventricular administration at a dose of 12.2 ug/mouse after time duration of 2 minutes; no of mice survived / total no of mice tested-12; assay type: functional
[2] = target: Opioid receptor (Rattus norvegicus); experiment: Concentration required to inhibit the specific binding of tritiated ligand [3H]DADL to opiate receptor by 50%
Mus musculus [3] = experiment: Analgesic activity in mice by tail-flick test after intracerebroventricular administration at a dose of 48 ug/mouse after time duration of 4 minutes; no of mice survived / total no of mice tested-3; assay type: functional
Mus musculus [4] = experiment: Analgesic activity in mice by tail-flick test after intracerebroventricular administration at a dose of 60 ug/mouse after time duration of 8 minutes; no of mice survived / total no of mice tested-3; assay type: functional
Mus musculus [5] = experiment: Analgesic activity in mice by tail-flick test after intracerebroventricular administration at a dose of 24.3 ug/mouse after time duration of 2 minutes; no of mice survived / total no of mice tested-12; assay type: functional
[6] = target: Opioid receptor (Rattus norvegicus); experiment: Concentration required to inhibit the specific binding of tritiated ligand [3H]naloxone to opiate receptor by 50%
Mus musculus [7] = experiment: Analgesic activity in mice by tail-flick test after intracerebroventricular administration at a dose of 40 ug/mouse after time duration of 2 minutes; no of mice survived / total no of mice tested-2; assay type: functional
Mus musculus [8] = experiment: Analgesic activity in mice by tail-flick test after intracerebroventricular administration at a dose of 60 ug/mouse after time duration of 4 minutes; no of mice survived / total no of mice tested-3; assay type: functional
Mus musculus [9] = experiment: Analgesic activity in mice by tail-flick test after intracerebroventricular administration at a dose of 40 ug/mouse after time duration of 4 minutes; no of mice survived / total no of mice tested-3; assay type: functional
Mus musculus [10] = experiment: Analgesic activity in mice by tail-flick test after intracerebroventricular administration at a dose of 48 ug/mouse after time duration of 8 minutes; no of mice survived / total no of mice tested-3; assay type: functional
Mus musculus [11] = experiment: Analgesic activity in mice by tail-flick test after intracerebroventricular administration at a dose of 40 ug/mouse after time duration of 8 minutes; no of mice survived / total no of mice tested-3; assay type: functional
Mus musculus [12] = experiment: Analgesic activity in mice by tail-flick test after intracerebroventricular administration at a dose of 60 ug/mouse after time duration of 2 minutes; no of mice survived / total no of mice tested-2; assay type: functional
Mus musculus [13] = experiment: Analgesic activity in mice by tail-flick test after intracerebroventricular administration at a dose of 48 ug/mouse after time duration of 2 minutes; no of mice survived / total no of mice tested-2; assay type: functional
Mus musculus [14] = experiment: Analgesic activity in mice by tail-flick test after intracerebroventricular administration at a dose of 240 ug/mouse after time duration of 2 minutes; no of mice survived / total no of mice tested-6; assay type: functional

CC(C)CC(NC(=O)C(Cc1ccccc1)NC(=O)CCC(=O)CCC(=O)C(N)Cc1ccc(O)cc1)C(=O)O (centres undefined)
Analgesic response (Mus musculus [1]): 2 | IC50 [2]: 33 µM | Analgesic response (Mus musculus [3]): 1 | Analgesic response (Mus musculus [4]): 0 | Analgesic response (Mus musculus [5]): 6 | IC50 [6]: 180 µM | Analgesic response (Mus musculus [7]): 1 | Analgesic response (Mus musculus [8]): 1 | Analgesic response (Mus musculus [9]): 1 | Analgesic response (Mus musculus [10]): 0 | Analgesic response (Mus musculus [11]): 0 | Analgesic response (Mus musculus [12]): 1 | Analgesic response (Mus musculus [13]): 1

CC(C)C[C@@H](NC(=O)[C@H](Cc1ccccc1)NC(=O)CNC(=O)[C@@H](C)NC(=O)[C@@H](N)Cc1ccc(O)cc1)C(=O)O [DADLE]
Analgesic response (Mus musculus [14]): 4
